The data set concerns porcine NP and AF. Briefly: Macroscopic and histological evaluation of porcine IVD after intradiscal or external LA (series 1 and 2). The class given is in vivo. The conditions noted are these: pig. As for the experimental part: The pigs were placed on the right side. A 6 cm long incision was made from the costal arch to the iliac crest, just lateral to the lateral processes. The lumbar IVDs were approached by a retroperitoneal technique. The L3/4 IVD was incised and 0.2 mL of the LA-formulation (n=6) or the placebo (n=2) was injected under fluoroscopic guidance. The LA-formulation was composed of LA (120 mg/mL) and iohexol (180 mg I/mL) while placebo consisted of iohexol only. The concentration was determined based on the pilot experiments on the effects of LA on collagen secretion from human NP cells (as described in WO 2017/046030). In this set of in vivo experiments, the pH of the placebo formulation was adjusted to the same as the active formulation (about 1.5) using hydrochloric acid. The adjacent IVDs were not injected and served as negative controls. The volume of the pig NP is about 1 mL and it was estimated that 0.2 mL would be an appropriate injection volume. The height and width of normally appearing NP (FIG. 6a) in the anteroposterior (short vertical double arrow) and bilateral (short horizontal double arrow) directions, respectively, were measured and expressed in relation to the height (long vertical double arrow), and width (long horizontal double arrow) of the IVD. […] The group data for NP height as percent of total IVD height are shown in FIG. 7 and the corresponding data for NP width are illustrated in FIG. 8. Further, the IVD was cut in half and photographed. The bilateral width and anteroposterior height of normally appearing NP was measured and expressed as percent of the total IVD width and height, respectively, as depicted in FIGS. 7 and 8. The aim of the second series (including 16 pigs) was to assess the safety and efficacy of the treatment and was part of the regulatory documentation required by the Swedish Medical Products Agency to initiate studies in humans. All procedures were as described above, with the following exceptions. […] In one group of animals, LA or placebo was applied onto the IVD outside the spinal foramen (external application) to assess any tissue damage resulting from leakage from the IVD or a misdirected injection. Due to this experimental design, spinal flexural stiffness was not measured in these pigs. The only other difference between the two series was that exposed tissues were evaluated histologically in the second but not first series. The lumbar spine was removed en bloc and any pathological changes were assessed macroscopically and photographed in extradiscal tissue onto which LA had been applied. Specimens of spinal nerves and muscle tissue were collected, fixed in 10% formalin, and processed for microscopy with hematoxylin/eosin staining. Injected IVDs were cut in half, inspected macroscopically, and photographed. Samples of the IVD were collected and processed for microscopy with hematoxylin/eosin. These turned out to include AF but very little NP so in order to obtain an improved overview of the IVD, the IVDs with adhering vertebrae were decalcified to enable preparation of axial sections of the whole IVD which were stained with Massons's trichrome. FIG. 9 illustrates effects of LA on the AF (A,B) and NP (C-J). LA or placebo (0.2 mL) was injected into IVDs of anesthetized pigs. The animals were sacrificed 4 or 12 weeks post injection and the IVDs were sectioned in half. After fixation in 10% formalin, decalcification and paraffin embedding, sections were cut at 5 μm and stained with hematoxylin&eosin (A,B) or Masson's trichrome (C-J). Fibrocartilagenous cells can be seen in the AF from untreated IVDs (arrows in A) but frequently, multicellular chondrons appeared after injection of LA (240 mg/mL, 12 weeks survival; arrows in B). NP of an untreated (extradiscal injection) IVD (C) consists of islets of notochordal cells (asterisk) embedded in weakly stained extracellular matrix. In LA-treated NP, collagenous fibers can be seen (asterisks in D; 120 mg/mL LA, 4 weeks survival and E; 120 mg/mL LA, 12 weeks survival). […]

For `CC(O)C(=O)O` (stereo not drawn) [LA, lactic acid], the “Fibrotic changes at sites of extradiscal administration” value (28-day follow-up, external 120 mg/mL) is listed as “No fibrotic changes”. Besides, the “Histological changes of the NP” value reads like this: (28-day follow-up, intradiscal 120 or 240 mg/mL) “Dense bundles of fibrotic tissue”; (84-day follow-up, intradiscal 120 or 240 mg/mL) “sclerosis (FIG. 9D-J), cystic degeneration (FIG. 9J), cartilaginous metaplasia (FIG. 9F, 9G), osteoid islands (FIG. 9F, 9G) and reduction in the extracellular matrix”; (two days after intradiscal injection) “marked histological changes characterized by lysis of the extracellular matrix”. Further, the “NP size (macroscopic)” value (28 and 84 days after LA treatment vs normally appearing NP) is recorded as “reduction in NP size”. The “Hemorrhage and inflammatory changes, LA vs vehicle” value (two-day follow up, intradiscal injection) was “not obviously more marked”.
